Source: US11820799B2, “Malassezia factor with antibiotic activity” (priority 2021, dated 2023)

System: S. aureus
Test: S. aureus growth curves / MIC with oxacillin in TSB
Type: cell-based, Staphylococcus aureus
Protocol: S. aureus growth curves: S. aureus growth curves were performed on a BioTek Synergy™ H1 monochromator-based multi-mode microplate reader in non-treated flat bottom 96-well plates. S. aureus grown overnight in 5 mL of TSB was subcultured 1:10 in fresh TSB for 1 h. Cells were collected through centrifugation at 5,000×g for 1 min and resuspended in fresh TSB. For 0 μg/mL oxacillin, 4 μg/mL oxacillin, and 16 μg/mL oxacillin TSB was utilized with a starting OD600 of 0.02.

Cc1onc(-c2ccccc2)c1C(=O)N[C@@H]1C(=O)N2[C@@H]1SC(C)(C)[C@@H]2C(=O)O [oxacillin]
growth of CFS-resistant strains with Sa-rel mutations (EVOL-P1 Y1 and IsoA) (4 μg/mL oxacillin in TSB): able to grow robustly
growth of CFS-resistant strains with Sa-rel mutations (EVOL-P1 Y1 and IsoA) (16 μg/mL oxacillin in TSB): able to grow robustly
MIC (Staphylococcus aureus, ancestral strain, rich media (tryptic soy broth, TSB)): 4 to 8 µg/mL
